Measured values taken from publication PMC7577125 (Antimicrobial Agents and Chemotherapy, 2020).
Where two headings read alike, the source gives them in different places.

Columns and labels:
[1] = test system: HBV (genotype D, subtype ayw); assay: HBV replication assay in HepAD38 cells; type: cell-based, Hepatitis B virus
HBV [2] = assay: HBV infection of HepG2-NTCP cells; type: cell-based; conditions: Hepatitis B virus
HBV [3] = assay: HBV infection of primary human hepatocytes (PHHs); type: cell-based; conditions: Hepatitis B virus, Hepatocyte, PHH
HBV [4] = assay: De novo infection models (HepG2-NTCP and PHH), summary; type: cell-based, Hepatitis B virus; conditions: HepG2-NTCP and PHH cells, tested at up to 100 nM
HBV cccDNA [5] = assay: cccDNA formation assay in infected HepG2-NTCP cells (Southern blot); type: cell-based; conditions: Hepatitis B virus, 96 h, 1.00 μM, 4 days, read-out: cccDNA % of Control
HBV cccDNA [6] = assay: cccDNA formation assay in infected PHH cells (Southern blot); type: cell-based; conditions: Hepatitis B virus, 96 h, 0.10 μM, 4 days, read-out: cccDNA % of Control
HBV capsid DNA [7] = assay: Incoming capsid assay in HepG2-NTCP cells; type: cell-based; conditions: Hepatitis B virus, 1.00 μM, 3 h, read-out: Capsid DNA % of Control
HBV capsid DNA [8] = assay: Incoming capsid assay in PHH cells; type: cell-based; conditions: Hepatitis B virus, 0.10 μM, 3 h, read-out: Capsid DNA % of Control
HBV [9] = assay: Extracellular HBV DNA and pgRNA in HepAD38 cells (qPCR, RT-qPCR); type: cell-based, Hepatitis B virus; conditions: for Extracellular DNA content (% of DMSO control) / Extracellular pgRNA content (% of DMSO control): HepAD38, concn ETV 0.01, ABI-H0731 2.0, GLS4 0.5, NVR 3-778 2.5, AT-130 0.8, VRD-32 0.8 μM
Source text: For HBV RNA Northern blot analysis, total cellular RNA or encapsidated pgRNA samples were resolved in a 1.5% agarose gel containing 2.2 M formaldehyde and transferred onto a Hybond-XL membrane (GE Healthcare). For DNA Southern blot analysis, HBV core DNA or cccDNA samples were resolved by electrophoresis in a 1.2% agarose gel and blotted onto a Hybond-XL membrane. Membranes were probed with either an [α-^32P]UTP (3,000 Ci/mmol; PerkinElmer)-labeled plus-strand-specific (for Northern blot hybridization) or minus-strand-specific (for Southern blot hybridization) HBV riboprobe and exposed to a phosphorimager screen. Extracellular HBV DNA and RNA were copurified from the culture medium of induced HepAD38 cells by using a MinElute virus vacuum kit (Qiagen). Viral DNA was quantified using the above-mentioned qPCR method directly, and HBV RNA was detected by RT-qPCR with the same core region primer/probe set after the removal of DNA contamination by DNase I (Thermo Fisher) treatment.

HBV genotype A = assay: microbe, parasite or virus in culture; type: cell-based; conditions: Hepatitis B virus, read-out: Mean antiviral EC50
HBV genotype B = assay: microbe, parasite or virus in culture; type: cell-based; conditions: Hepatitis B virus, read-out: Mean antiviral EC50
HBV genotype C = assay: microbe, parasite or virus in culture; type: cell-based; conditions: Hepatitis B virus, read-out: Mean antiviral EC50
HBV genotype D = assay: microbe, parasite or virus in culture; type: cell-based; conditions: Hepatitis B virus, read-out: Mean antiviral EC50
[10] = test system: HBV genotypes A, B, C, and D; assay: microbe, parasite or virus in culture; type: cell-based; conditions: Hepatitis B virus, read-out: VR EC50s
[11] = test system: NrtI^R HBV (rtL180M/M204V); assay: microbe, parasite or virus in culture; type: cell-based, Hepatitis B virus; conditions: Hepatitis B virus
HBV Cp Wild type = assay: microbe, parasite or virus in culture; type: cell-based, Hepatitis B virus; conditions: Hepatitis B virus, Huh-7, read-out: Mean EC50
HBV Cp P25A = assay: microbe, parasite or virus in culture; type: cell-based, Hepatitis B virus; conditions: Hepatitis B virus, Huh-7, read-out: Mean EC50
HBV Cp D29G = assay: microbe, parasite or virus in culture; type: cell-based, Hepatitis B virus; conditions: Hepatitis B virus, Huh-7, read-out: Mean EC50
HBV Cp T33N = assay: microbe, parasite or virus in culture; type: cell-based, Hepatitis B virus; conditions: Hepatitis B virus, Huh-7, read-out: Mean EC50
HBV Cp Y38C = assay: microbe, parasite or virus in culture; type: cell-based, Hepatitis B virus; conditions: Hepatitis B virus, Huh-7, read-out: Mean EC50
HBV Cp Y38F = assay: microbe, parasite or virus in culture; type: cell-based, Hepatitis B virus; conditions: Hepatitis B virus, Huh-7, read-out: Mean EC50
HBV Cp I105L = assay: microbe, parasite or virus in culture; type: cell-based, Hepatitis B virus; conditions: Hepatitis B virus, Huh-7, read-out: Mean EC50
HBV Cp I105T = assay: microbe, parasite or virus in culture; type: cell-based, Hepatitis B virus; conditions: Hepatitis B virus, Huh-7, read-out: Mean EC50
HBV Cp T109I = assay: microbe, parasite or virus in culture; type: cell-based, Hepatitis B virus; conditions: Hepatitis B virus, Huh-7, read-out: Mean EC50
HBV Cp T109M = assay: microbe, parasite or virus in culture; type: cell-based, Hepatitis B virus; conditions: Hepatitis B virus, Huh-7, read-out: Mean EC50
HBV Cp Y118F = assay: microbe, parasite or virus in culture; type: cell-based, Hepatitis B virus; conditions: Hepatitis B virus, Huh-7, read-out: Mean EC50
HBV [12] = assay: Dose response of ETV and ABI-H0731 alone and in combination in induced HepAD38 cells; type: cell-based, Hepatitis B virus; conditions: 100× VR EC50 of ETV
Description: Viral replication was evaluated by quantifying the levels of total HBV DNA in the cells by qPCR. […] In both cases, the data are plotted as a function of each drug’s concentration relative to its VR EC50.

HBV [13] = assay: HBV RNA/DNA analyses in induced HepAD38 cells (Northern/Southern blot); type: cell-based, Hepatitis B virus; conditions: HepAD38, 10-fold over VR EC50
[14] = Hepatitis B virus, HePAD38, HepAD38, total intracellular viral DNA, read-out: Mean EC50, viral DNA
[15] = total intracellular viral DNA, read-out: Mean EC50, viral DNA

C=C1[C@H](CO)[C@@H](O)C[C@@H]1n1cnc2c(=O)[nH]c(N)nc21 [ETV, entecavir]
EC50 ([1]; HepAD38, concomitantly determined with HepG2-NrtI^R, read-out: Mean EC50): 0.58 ± 0.15 nM | EC50 ([1]; Hepatitis B virus, HePAD38, HepAD38, concomitantly determined with HepG2-NrtI^R, read-out: Mean EC50): 0.6 nM | EC50 [1, 14]: 1.2 ± 0.3 nM | EC50 ([1]; Hepatitis B virus, HePAD38, comparison value of Figure S4 legend, read-out: EC50 against a wild-type strain): 1 nM | EC50 (HBV [2]; read-out: Mean EC50, HBeAg): > 100 nM | EC50 (HBV [2]; read-out: Mean EC50, HBsAg): > 100 nM | EC50 (HBV [2]; read-out: Mean EC50, pgRNA): > 100 nM | EC50 (HBV [2]; [15]): 0.8 nM | EC50 (HBV [3]; read-out: Mean EC50, HBeAg): > 100 nM | EC50 (HBV [3]; read-out: Mean EC50, HBsAg): > 100 nM | EC50 (HBV [3]; read-out: Mean EC50, pgRNA): > 100 nM | EC50 (HBV [3]; [15]): < 0.1 nM | inhibition of viral antigen production (HBV [4]): weak and incomplete inhibition | activity at 1 µM (HBV cccDNA [5]): 85% | activity at 0.1 µM (HBV cccDNA [6]): 88% | activity at 1 µM (HBV capsid DNA [7]): 90% | activity at 0.1 µM (HBV capsid DNA [8]): 86% | secreted HBV DNA levels reduced by (HBV [9]; HepAD38, ETV 0.01 μM): 80% | Extracellular DNA content (% of DMSO control) (HBV [9]): 19.5 % of DMSO control | Extracellular pgRNA content (% of DMSO control) (HBV [9]): 170 % of DMSO control | EC50 (HBV genotype A): 1.9 ± 0.5 nM | EC50 (HBV genotype B): 2.3 ± 0.5 nM | EC50 (HBV genotype C): 1.2 ± 0.1 nM | EC50 (HBV genotype D): 5 ± 1.9 nM | EC50 [10]: 1.2 to 5 nM | EC50 ([11]; 96 h, read-out: Mean EC50): 7.1 ± 1.2 nM | EC50 ([11]; 168 h, read-out: EC50 by Southern blot of intracellular viral core DNA): ~10 nM | EC50 (HBV Cp Wild type): 1.9 ± 0.9 nM | EC50 (HBV Cp P25A): 2.9 ± 0.3 nM | EC50 (HBV Cp D29G): 0.6 ± 0.1 nM | EC50 (HBV Cp T33N): 3.5 ± 1.6 nM | EC50 (HBV Cp Y38C): 1.1 ± 0.5 nM | EC50 (HBV Cp Y38F): 4.6 ± 0.6 nM | EC50 (HBV Cp I105L): 0.4 ± 0.2 nM | EC50 (HBV Cp I105T): 0.5 ± 0.3 nM | EC50 (HBV Cp T109I): 1.9 ± 0.6 nM | EC50 (HBV Cp T109M): 1.5 ± 0.3 nM | EC50 (HBV Cp Y118F): 1.5 ± 0.9 nM | reduction of HBV DNA levels (HBV [12]): ~1 log | HBV DNA levels (HBV [12]; control 2.2 × 10^6): 1.3 × 10^5 copies/μl

CCOC(=O)C1=C(CN2CCOCC2)NC(c2nccs2)=NC1c1ccc(F)cc1Br (stereo not shown) [GLS4]
EC50 [1, 14]: 29 ± 9 nM | EC50 (HBV [2]; read-out: EC50, HBeAg production): 550 nM | EC50 (HBV [2]; read-out: EC50, HBsAg production): 670 nM | EC50 (HBV [2]; read-out: EC50, pgRNA production): 280 nM | EC50 (HBV [2]; read-out: Mean EC50, HBeAg): 549 ± 48 nM | EC50 (HBV [2]; read-out: Mean EC50, HBsAg): 673 ± 41 nM | EC50 (HBV [2]; read-out: Mean EC50, pgRNA): 279 ± 43 nM | EC50 (HBV [2]; [15]): 58 ± 6 nM | EC50 (HBV [3]; read-out: EC50, HBeAg): 1480 nM | EC50 (HBV [3]; read-out: EC50, HBsAg): 1860 nM | EC50 (HBV [3]; read-out: EC50, pgRNA): 1930 nM | EC50 (HBV [3]; [15]): 1940 nM | Levels of encapsidated pgRNA by Northern blotting (HBV [13]): virtually undetectable | rcDNA detection by Southern blot (HBV [13]): could not be detected | Extracellular DNA content (% of DMSO control) (HBV [9]): 0.1 % of DMSO control | Extracellular pgRNA content (% of DMSO control) (HBV [9]): 0.1 % of DMSO control | EC50 (HBV Cp Wild type): 17.9 ± 0.4 nM | EC50 (HBV Cp P25A): 451 ± 3.3 nM | EC50 (HBV Cp D29G): 16.1 ± 0.4 nM | EC50 (HBV Cp T33N): 6340 nM | EC50 (HBV Cp Y38C): 17 ± 9.5 nM | EC50 (HBV Cp Y38F): 65 ± 17 nM | EC50 (HBV Cp I105L): 12 ± 6.5 nM | EC50 (HBV Cp I105T): 17 ± 2.7 nM | EC50 (HBV Cp T109I): 237 ± 16.6 nM | EC50 (HBV Cp T109M): 15 ± 5.6 nM | EC50 (HBV Cp Y118F): 84.7 ± 2.3 nM
